Where two headings read alike, the source gives them in different places.

Test [1] has as its target NA enzymatic activity of A/St.Louis/758/09 (Influenza A virus, UniProt D0FH51, S5N). In words: biochemical. Format: biochemical, IFV A (H1N1). Particulars: for R/S: NI assay.
For test [2], the target named is NA enzymatic activity of A/Georgia/20/2006 H274Y (Influenza A virus (H1N1), UniProt B1AGS8). In words: biochemical. The test is classed as biochemical.
In test [3] the test system is A/Victoria/3/75 (H3N2) with A28T(HA) and R292K(NA) mutations. Particulars: cited from earlier work.
Test [4] concerns the target NA enzymatic activity of A/New Jersey/15/2007 (Influenza A virus (H1N1), UniProt D5F1R0, H275Y). Format: biochemical, IFV A (H1N1). Particulars: for R/S: A/New Jersey/15/2007, NI assay.

With `CC(=O)N[C@H]1[C@H]([C@H](O)[C@H](O)CO)OC(C(=O)O)=C[C@@H]1N=C(N)N` [zanamivir], the IC50 in test [1] stood at 0.34 nM; in test [2], 0.57 nM. The R/S entry in test [1] (A/St.Louis/758/09), in test [2] and in test [4] was “S” in each case. Besides, the Resistance in test [3] is recorded as 60 fold.
`CCC(CC)O[C@@H]1C=C(C(=O)O)C[C@H](N)[C@H]1NC(C)=O` [oseltamivir, oseltamivir carboxylate]: the R/S entry in test [1] (A/St.Louis/758/09), in test [2] and in test [4] was “R” throughout. Further, the IC50 in test [1] (A/St.Louis/758/09, mean of triplicate analysis, read-out: IC50) was determined as 88.4 nM; in test [2] (read-out: IC50) it was 192 nM; in test [4] (A/New Jersey/15/2007 reference virus, mean of triplicate analysis), 124 nM. In test [3], the Resistance is on record as 3230 fold.

The IC50 is the concentration that inhibits the measured activity by half.

(Values after PMC2770896, “Inhibition of Neuraminidase Inhibitor-Resistant Influenza Virus by DAS181, a Novel Sialidase Fusion Protein” (PLoS ONE, 2009).)
